Experimental data published in patent US4808614A (priority 1987, dated 1989).

Key:
Herpes simplex, type I = assay: cells; format: cell-based, Herpes simplex virus; details: Chlorocebus sabaeus, BSC-1, 72 h, read-out: Percent Plaque Inhibition
Pseudorabies Virus = assay: microbe, parasite or virus in culture; format: cell-based; details: Suid alphaherpesvirus 1, BSC-1, in Chlorocebus sabaeus, 72 h, read-out: Percent Plaque Inhibition
[1] = system: L1210V lymphocytic leukemia; assay: Oncolytic activity in tumor system L1210V lymphocytic leukemia; format: in vivo
[2] = system: P1534J lymphatic leukemia; assay: Oncolytic activity in tumor system P1534J lymphatic leukemia; format: in vivo
6C3HED lymphosarcoma = assay: Oncolytic activity in tumor system 6C3HED lymphosarcoma; format: in vivo
[3] = system: X5563 plasma cell myeloma; assay: Oncolytic activity in tumor system X5563 plasma cell myeloma; format: in vivo
CA-755 adenocarcinoma = assay: Oncolytic activity in tumor system CA-755 adenocarcinoma; format: in vivo

| SMILES | inhibition at 0.39 µg/mL (Herpes simplex, type I) [%] | inhibition at 0.78 µg/mL (Herpes simplex, type I) [%] | inhibition at 1.56 µg/mL (Herpes simplex, type I) [%] | inhibition at 3.12 µg/mL (Herpes simplex, type I) [%] | inhibition at 6.25 µg/mL (Herpes simplex, type I) [%] | inhibition at 12.5 µg/mL (Herpes simplex, type I) [%] | inhibition at 25 µg/mL (Herpes simplex, type I) [%] | inhibition at 50 µg/mL (Herpes simplex, type I) [%] | inhibition at 100 µg/mL (Herpes simplex, type I) [%] | inhibition at 3 µg/mL (Pseudorabies Virus) [%] | inhibition at 6 µg/mL (Pseudorabies Virus) [%] | inhibition at 12 µg/mL (Pseudorabies Virus) [%] | inhibition at 25 µg/mL (Pseudorabies Virus) [%] | inhibition at 50 µg/mL (Pseudorabies Virus) [%] | inhibition at 100 µg/mL (Pseudorabies Virus) [%] | oncolytic activity [1] | oncolytic activity [2] | oncolytic activity (6C3HED lymphosarcoma) | oncolytic activity [3] | oncolytic activity (CA-755 adenocarcinoma) |
| --- | --- | --- | --- | --- | --- | --- | --- | --- | --- | --- | --- | --- | --- | --- | --- | --- | --- | --- | --- | --- |
| Cc1cn(C2O[C@H](CO)[C@@H](O)C2(F)F)c(=O)[nH]c1=O (some centres unmarked) [DFAT, 1-(5-methyl-2,4-dioxo-1H,3H-pyrimidin-1-yl)-2-desoxy-2,2-difluororibose] | 4 | 8 | 0 | 12 | 15 | 35 | 53 | 72 | 96 | 5 | 6 | 12 | 15 | 18 | 23 | – | – | – | – | – |
| Nc1ccn(C2O[C@H](CO)[C@@H](O)C2(F)F)c(=O)n1 (some centres unmarked) [Example 8, 1-(2-oxo-4-amino-1H-pyrimidin-1-yl)-2-desoxy-2,2-difluororibose] | – | – | – | – | – | – | – | – | – | – | – | – | – | – | – | demonstrated activity | demonstrated activity | demonstrated activity | demonstrated activity | demonstrated activity |
